According to a melting point compilation (Tetko et al.; mined from patent text by program, amines drawn as free bases though some values may be those of a salt):

| SMILES | melting point |
| --- | --- |
| Clc1ccc(-c2[nH]c3c(Cl)cc(Cl)cc3c2Cl)cc1 | 148 to 149 °C |
| CC(C)[C@H](NC(=O)[C@@H](CSC(=O)c1ccccc1)SC(=O)c1ccccc1)C(=O)N1CCC[C@H]1C(=O)O | 85 to 93 °C |
| COC(=O)CCCOc1cc([N+](=O)[O-])c(CBr)cc1OC | 68 to 70 °C |
| CC1=CCC(NC(=O)NS(=O)(=O)c2ccc(CCNC(=O)N3CCC(C)CC3=O)cc2)CC1 (stereo not drawn) | 173 to 175 °C |
| C[C@H]1CC[C@H]2C(C)(C)[C@@H](O)CC[C@]23Oc2c(c(O)cc4c2CN(C)C4=O)C[C@]13C | 205 to 210 °C |
| Nc1ccc(S(=O)(=O)Nc2cccc(OP(N)(N)=O)c2)cc1 | 185 to 186 °C |
| CC(C)(O)c1cc2cc(O)c(Cl)c(Cl)c2s1 | 171 to 173 °C |
| Cn1c(C(F)(F)F)cc(=O)n(-c2cc(Oc3ncccn3)c(Cl)cc2F)c1=O | 192 to 194 °C |
| Cn1cc(-c2ccccc2)c(=O)c(-c2cccc(S(C)=O)c2)c1 (stereo not drawn) | 161 to 164 °C |
| CN(O)C(=O)c1ccc(CCCCc2ccccc2)cc1 | 62 to 63.5 °C |
| Cc1ccc([N+](=O)[O-])c(C(=O)Nc2ccc(-n3nc(C(F)(F)F)cc3C(F)(F)F)cc2)c1 | 188 to 189 °C |
| CCCCN(CCCC)c1ccc(C=Cc2ccc(C=CC3=C(C#N)C(=C(C#N)C#N)OC3(C)C(F)(F)F)cc2)c(OC)c1 (stereo not drawn) | 175 to 177 °C |
| CSc1ccc(C(O)c2occc(=O)c2OCc2ccccc2)cc1 (stereo not drawn) | 82 to 82.5 °C |
| COc1ccc(CCOS(N)(=O)=O)cc1OC | 106 to 108 °C |
| C[C@@H](n1ncn(-c2ccc(OCC(F)(F)C(F)F)cc2)c1=O)[C@](O)(C=O)c1ccc(F)cc1F | 134 to 136 °C |
| CC(=Cc1ccc(OCc2cccc(Cl)c2)cc1)[N+](=O)[O-] | 117 to 118 °C |
| C#CCn1c(=O)n(C)c2ccccc21 | 110 to 112 °C |
| Nc1c(Br)cc(Oc2cc(Br)c(N)c(Br)c2)cc1Br | 166 to 167 °C |
| O=S(=O)(Cc1c(C(F)(F)F)nn(-c2ccccc2)c1O)c1ccccc1 | 122 to 123 °C |
| O=c1[nH]c2cc(Cl)ccc2c(=O)n1S(=O)(=O)c1ccc(Cl)cc1 | 286 to 287 °C |
| COc1ccc(-c2ccc(C(C)=NOCCO)cc2)cc1 | 164 to 166 °C |
| Cn1cc(SC(C)(C)C)c(=O)c(-c2ccc(Cl)c(C(F)(F)F)c2)c1 | 138 to 142 °C |
| CN=C(NC#N)NCCSCc1ncccc1Br | 114 to 116 °C |
| Oc1c(CCc2ccccc2)cnc2c(-c3cc(-c4ccccc4)cs3)cnn12 | 278 to 285 °C |
| O=S(=O)(c1ccc(Cl)cc1)c1c(-c2ccc(Cl)cc2)[nH]c(C(F)(F)F)c1Br | > 230 °C |

| SMILES | melting point |
| --- | --- |
| CC(=O)c1ccc(S(=O)(=O)Nc2ccc(Cl)cn2)cc1 | 181 to 182 °C |
| O=C(Nc1ccc(CCCc2nnn[nH]2)cc1)C(F)(F)C(F)(F)C(F)(F)F | 144 to 145 °C |
| CCn1c(=O)c2c(nc(/C=C/c3ccc(OCCCCN)cc3)n2C)n(CC)c1=O | 212 to 214 °C |
| CC#CCOc1ccc(SC(C(=O)NO)C2CCCCC2)cc1 (stereo not drawn) | 163 °C |
| O=C(NCCO)c1ccc(CCN2CCN(Cc3ccccc3Cl)CC2)cc1 | 121 to 122 °C |
| N#CC1CN(c2c(F)cc3c(=O)c(C(=O)O)cn(C4CC4)c3c2F)C1 | > 325 °C |
| O=[N+]([O-])c1ccc(OCc2ccc(Cl)cc2)cc1F | 86 to 88 °C |
| Brc1cc2nc(NC3=NCCN3)[nH]c2cc1Br | 261 to 267 °C |
| O=C(Cc1ccccc1[N+](=O)[O-])c1c(O)c2cccnc2n(-c2ccccc2)c1=O | 194 to 195 °C |
| O=C(c1ccc(Cl)cc1)c1c(N2C(=O)c3ccccc3C2=O)sc(Br)c1CN(C1CCCCC1)C1CCCCC1 | 173 to 175 °C |
| CCCCCCCCCCCCCCCCCCOc1ccc(C(=O)C(=O)O)cc1 | 78 to 80 °C |
| CC(NC(Nc1cc(C(F)(F)F)cc(C(F)(F)F)c1)=C(C#N)S(=O)(=O)c1ccc(Cl)cc1)C(C)(C)C (stereo not drawn) | 156 to 158 °C |
| Cc1noc(-c2ncn3c2[C@@H]2CCCN2C(=O)c2cc(F)ccc2-3)n1 | 248 to 249 °C |
| CC(C(=O)O)c1cc(=O)n(Cc2ccc(Cl)cc2)c2ccc(Cl)cc12 (stereo not drawn) | 192 to 194 °C |
| CCCCCN(CCCCC)C(=O)C(CCC(=O)O)CS(=O)(=O)c1ccc(Cl)c(Cl)c1 (stereo not drawn) | 76 to 79 °C |
| CN(C)c1ccc(-c2cc(F)c(F)cc2-c2ccc(S(N)(=O)=O)cc2)cc1Cl | 193 to 194 °C |
| CCOC(=O)C1(c2ccc(Cl)cc2)CCN(C(=O)CC(c2ccccc2)(c2ccccc2)c2ccccc2)CC1 | 95 to 98 °C |
| CSc1ccc2c(c1)CN(C(C)C)S(=O)(=O)N2CCCl | 74 to 75 °C |
| c1cc(-c2ccc3nncn3n2)cs1 | 189 to 192 °C |
| NCC1CCc2c(O)cccc2C1 (stereo not drawn) | 183 to 192 °C |
| N#CCCSN1C(=O)c2ccccc2C1=O | 162 to 164 °C |
| C[C@H]1CCCC(C)(C)[C@@H]1[C@H](O)c1ccc(C#N)cc1 | 106 to 108 °C |
| CON1C(C)(C)CC(CCCCNc2nc(N)nc(NCCCCC3CC(C)(C)N(OC)C(C)(C)C3)n2)CC1(C)C | 163 to 165 °C |
| COC1=CC(OC)OC(C)C1=O (stereo not drawn) | 73 to 74.5 °C |

More lines, now with the values ahead:

| melting point | SMILES |
| --- | --- |
| 183 to 184 °C | COCN(c1cccc2cc(C(=O)O)n(COC)c12)S(=O)(=O)c1cccs1 |
| 144 to 145 °C | COC(=O)c1ccc2c(c1)C(=O)CC(C)(COc1ccc([N+](=O)[O-])cc1)O2 (stereo not drawn) |
| 109 to 111 °C | CCOC(=O)C1(C)Sc2ccccc2NC1=O (stereo not drawn) |
| 264 to 267 °C | CC(=O)Nc1nc(-c2cccnc2)c(-c2ccccc2)s1 |
| 160 to 162 °C | Cc1cccc(Nc2cc(Nc3ccc(OCC(=O)N(CCO)CCO)cc3)ncn2)c1 |
| 207 to 209 °C | CCCC(=O)OCCOc1ccc2oc3cc(-c4nnn[nH]4)ccc3c(=O)c2c1 |
| 203 to 205 °C | CC(C)(C)NCC(O)COc1cccc2nc[nH]c12 (stereo not drawn) |
| 113 to 115 °C | COc1ccc(-c2nnc3c4ccccc4c(N(C)CCCCl)nn23)cc1 |
| 199 °C | Cc1cc2ncnc(N3CCc4ccc(Cl)cc43)c2cc1C |
| 175 to 178 °C | Cc1cccc(C)c1C(=O)Oc1cc([N+](=O)[O-])cc([N+](=O)[O-])c1OC(=O)c1c(C)cccc1C |
| 267 to 270 °C | CCCc1c2nc(C(=O)OC)cc(N)c2cc2c(=O)cc(C(=O)OCC)oc12 |
| 129 to 132 °C | Cc1cc(-c2cc(C(=O)O)c(=O)n(CC(C)C)n2)ccc1F |
| 163 to 164 °C | C=CCN(CC=C)c1nc(NC(=O)c2ccc(Cl)cc2Cl)n2oc(=O)nc2n1 |
| 133 to 135 °C | COc1ccc(CCNC(=O)CNc2cccc(C(N)=O)c2)cc1OC |
| 102 to 104 °C | CC(C)C1c2ccc(F)cc2CCC1(O)CC(=O)O (stereo not drawn) |
| 205 to 207 °C | CC(C)(C)C(=O)c1c[nH]c2ncc(-n3ccc4ccccc43)nc12 |
| 178 to 179 °C | CC(C)=NOCc1nc2c(N)nc3ccccc3c2n1CCCNS(C)(=O)=O |
| 188 to 192 °C | CCCOc1ccc(S(=O)(=O)N2CCN(CC(=O)OCC)CC2)cc1-c1nc2cc3nc[nH]c3cc2c(=O)[nH]1 |
| 144 to 154 °C | Cc1cc(C)n(-c2ncc(Br)c(Nc3ccc(Cl)cc3)n2)n1 |
| 301 to 303 °C | Cn1nnnc1-c1cn(C)c2cc(C#N)ccc2c1=O |
| 113 to 116 °C | CCOC(=O)C1[C@@H]2[C@@H](O)[C@@H]3O[C@H](c4ccc(C(C)(C)C)cc4)OC[C@H]3O[C@H]12 (stereo partly drawn) |
| 58 to 60 °C | CC(=O)c1ccc(C)cc1N(C)C=O |
| 192 to 194 °C | Cc1ccc(-c2ccc(-c3nnn[nH]3)cc2)cc1C |
| 299 °C | COc1cc2ncnc(Nc3cccc(Br)c3)c2cc1O |
| 156 to 159 °C | CC(C)=C1Cc2ccc3nc(C)oc3c2C1=O |

| melting point | SMILES |
| --- | --- |
| 212 °C | Cc1nc2cc(N)c(N)cc2n1C |
| 108 to 111 °C | CCOC(=O)COc1ccc2c(c1)C[C@@H](NC[C@H](O)c1ccccc1)CC2 |
| 144 to 146 °C | COc1ccc(C(F)(F)F)cc1Nc1cccn2nc(Cl)nc12 |
| 207 to 208 °C | CCCc1cc(-c2ccc(Cl)cc2)nc2c(C(=O)Nc3cccc(S(=O)(=O)NC(C)(C)CO)c3)cnn12 |
| 107 to 113 °C | CNCC1(C)Cc2c(C)c(N3CCN(c4ccc(OC)cc4)CC3)c(C)c(C)c2O1 (stereo not drawn) |
| > 300 °C | CCCn1cc2c(C3C(=O)Nc4ccc(Br)cc43)nc(Cl)nc2n1 (stereo not drawn) |
| 97 to 98 °C | COC(=O)c1ccc(-c2ccccc2-c2nnn(C(C)(C)c3ccccc3)n2)cc1 |
| 159 to 162 °C | Cc1cc(-c2ccc(S(C)(=O)=O)cc2)n(-c2ccc(F)cc2)c1C |
| 113 to 114 °C | CCOc1ccc(-c2nc(-c3cc(CCO)c(O)c(C(=O)OC)c3)cs2)cc1OCC |
| 202 to 204 °C | Cc1c(C)c(N2CCN(c3ccc(Br)cc3)CC2)c(C)c2c1OC(C)C2 (stereo not drawn) |
| 102 to 105 °C | CC(=O)N1CCN(C(=O)C2(C#N)Nc3cc(C)c(-c4ccccc4)c(N4CC[C@H](N(C)C)C4)c3O2)CC1 (stereo partly drawn) |
| 74 to 76 °C | CC(C)(C)C(=O)Nc1ccccn1 |
| 149 °C | CCOC(=O)C1=C(N)N=C(N(C)C)C(C(=O)OCC)C1c1cccc([N+](=O)[O-])c1 (stereo not drawn) |
| 191 to 192 °C | O=C(O)c1cc(-c2ccccc2F)ns1 |
| 138 °C | CCc1noc(-c2ccc(O)cc2)n1 |
| 80 to 82 °C | COC(=O)Nc1ccc(CCc2cc(OC)ccc2OC)cc1C(=O)OC |
| 178 to 180 °C | CS(=O)(=O)c1ccc(-c2cnn(-c3cccc(Cl)c3)c(=O)c2Oc2cccc(F)c2)cc1 |
| 184 to 185 °C | CC(=O)Nc1nc(CCc2ccc(NC(=O)OC(C)(C)C)cc2)c(C(=O)NCc2ccccc2)s1 |
| > 260 °C | O=C(Nc1nc2ccc(Sc3cnc4ccc(-c5cccc(F)c5)cn34)cc2s1)C1CC1 |
| 248 to 249 °C | COC(=O)C1=C(C)NC(C)=C(c2nc(C)no2)C1c1cccc(N)c1 (stereo not drawn) |
| 100 to 102 °C | CC(=O)c1cccc(NC=O)c1 |
| 129 °C | COC(=O)c1cc2cc(OC(F)(F)F)ccc2[nH]1 |
| 173 to 174 °C | COc1ccc(N2CN(CC(=O)O)C(=O)C23CCN(C(=O)OC(C)(C)C)CC3)cc1 |
| 148 °C | CC(C)(C)c1ccc(S(=O)(=O)N2c3ccccc3C[C@H]2C(=O)Cl)cc1 |
